Measurements published in US20250177338A1 (URIACH ITALY S.R.L., priority 2022, published 2025).

Key:
[1] = system: NSC-34/IFRS1 co-culture; test: Mitochondrial metabolism at Peripheral Nervous System level; format: cell-based, rat; conditions: added to NAC 12 mM, VitD 100 nM, G 5 mM
Procedure: In order to recreate a peripheral nervous system in vitro, a myelinating co-culture system was used with an NSC-34 motor neuron-like cell line and an IFRS1 adult rat Schwann cell line according to a protocol reported in the literature. IFRS1 cells were seeded on 100-mm plastic discs (Greiner Bio-One GmbH, Frickenhausen, Germany, 664-160-013) at an approximate density of 2×10^4/cm^2 and maintained in DMEM containing 5% FBS, recombinant human eregulin-β (EMD Millipore, Billerica, MA, USA) 20 ng/mL, forskolin (Sigma, St. Louis, MO, USA) 5 μM and antifungal antibiotic solution (penicillin 100 U/mL, streptomycin 100 μg/mL and amphotericin 250 ng/mL; Sigma). NSC-34 cells were seeded on 100-mm plastic discs at an approximate density of 1×10^4/cm^2 and maintained in DMEM containing antibiotic antifungal solution and 5% FBS. At semi-confluence, cells were detached from the discs using 0.05% trypsin/EDTA 0.53 mM solution, suspended in DMEM/F12 Ham containing 5% FBS in a 50 mL polypropylene conical tube, and reseeded on Aclar fluorocarbon coverslips coated with poly-L-lysine/laminine, 12-well culture plates coated with type I collagen, and 2-well glass chamber slides coated with type I collagen at an approximate density of 2×10^3/cm^2. […]

[2] = system: ERK/MAPK; conditions: liver level; NAC 12 mM, VitD 100 nM, G 5 mM, LA 50 μM
Procedure: Human epithelial cells (HepG2) were purchased from ATCC, and cultured in DMEM supplemented with 10% FBS, L-glutamine 2 mM and 1% penicillin-streptomycin, at 37° C., 5% CO2. […] ERK/MAPK activity was measured by InstantOne™ ELISA (Thermo Fisher) on cell lysates following the manufacturer's instructions. The strips were measured by a spectrometer (VICTOR X4, multiwell plate reader) at 450 nm. Results were expressed as mean absorbance (%) compared with control.

[3] = system: HepG2; test: Hepatic absorption test; format: in vitro ADME, Human; conditions: NAC 12 mM, VitD 100 nM, G 5 mM, LA 50 μM
Procedure: Human epithelial cells (HepG2) were purchased from ATCC, and cultured in DMEM supplemented with 10% FBS, L-glutamine 2 mM and 1% penicillin-streptomycin, at 37° C., 5% CO2.

[4] = system: GTL-16 cell line; conditions: pre-digested model, 2, 3, 4 and 6 hours; NAC 12 mM, VitD 100 nM, G 5 mM
Procedure: The GTL-16 cell line, donated by the Laboratory of Histology, University of Eastern Piedmont (Italy), is a clonal line derived from a poorly differentiated gastric carcinoma cell line widely used as a model of gastric epithelial cells. Cells were cultured in Dulbecco's Modified Eagle medium (DMEM, Merck Life Science, Rome, Italy) supplemented with 10% fetal bovine serum (Fetal Bovine Serum, FBS), 1% penicillin-streptomycin, in an incubator at 37° C., 5% CO2. 1×10^4 cells were used to explore cell viability by MTT.
At the end of stimulation, cells were incubated with 1% MTT dye for 2 h at 37° C. in an incubator, 5% CO2 and 95% humidity, and then purple formazan crystals were dissolved in an equal volume of MTT solubilization solution.

hepatic absorption [3] | Compound | mitochondrial activity [1] | ERK activity [2] | cell viability [4]
 | Vitamin D [VitD] | contributes to increased mitochondrial activity |  | 
further increases hepatic absorption | N[C@@H](CCC(=O)N[C@@H](CS)C(=O)NCC(=O)O)C(=O)O [glutathione, (2S)-2-amino-5-[[(2R)-1-(carboxymethylamino)-1-oxo-3-sulfanylpropan-2-yl]amino]-5-oxopentanoic acid] |  | further enhances the conservation of these biological activities | contributes to increased cell viability
